Data published in patent publication US9701689B2, “Substituted pyridines and pyridazines as CCR10 receptor inhibitors” (KYOWA HAKKO KIRIN CO., LTD., priority 2012, dated 2017).

Biological target: T1, human CCR10 (Homo sapiens, UniProt P46092)
T1 construct: expressed in transfected cells; host or cells: KJMGER8 cells (Namalwa cell-derived line), beta-estradiol-induced; hCCR10G16 cells
T1 sequence (P46092 1-362): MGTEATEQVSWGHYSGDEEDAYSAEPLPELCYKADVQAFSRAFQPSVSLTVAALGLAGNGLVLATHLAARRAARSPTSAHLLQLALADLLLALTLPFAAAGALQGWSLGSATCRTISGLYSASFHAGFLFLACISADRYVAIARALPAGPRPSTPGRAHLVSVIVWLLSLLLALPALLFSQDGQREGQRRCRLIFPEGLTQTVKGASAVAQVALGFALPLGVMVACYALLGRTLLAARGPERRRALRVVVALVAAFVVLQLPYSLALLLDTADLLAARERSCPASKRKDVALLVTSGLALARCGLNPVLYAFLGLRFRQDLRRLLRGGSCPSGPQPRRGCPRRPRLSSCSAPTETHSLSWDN
Assay: CCR10 antagonistic effect: calcium assay of human CCR10 (CTACK-induced increase of intracellular calcium in hCCR10G16 cells)
Type: cell-based
Settings: at a concentration of not more than 1000 nmol/L; human CCR10-expressing hCCR10G16 cells, 300 nmol/L CTACK added; read-out: inhibition of increase in the calcium ion concentration
Procedure, shortened: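 KJMGER8-derived hCCR10G16 cells (CCR10 plus Gα16, induced 24 h with 10 nmol/L β-estradiol), Fluo-3 loaded, preincubated with compound 30 min at 37 °C. Stimulated with CTACK (300 nmol/L solution before addition); calcium read ~5 min by FDSS, max−min fluorescence; % inhibition vs control.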

inhibition at up to 1 µM | Compound
≥ 50% | CCNC(=O)NS(=O)(=O)c1cc(Nc2cc(C)ccc2Cl)c(C(=O)N2CCC(c3ccc(F)cc3)CC2)cn1 [Compound 161, 4-(2-chloro-5-methylphenylamino)-N-(ethylcarbamoyl)-5-[4-(4-fluorophenyl)piperidine-1-carbonyl]pyridine-2-sulfonamide]
≥ 50% | CCCNC(=O)NS(=O)(=O)c1cc(Nc2cc(C)ccc2Cl)c(C(=O)N2CCC(c3ccc(F)cc3)CC2)cn1 [Compound 162, 4-(2-chloro-5-methylphenylamino)-5-[4-(4-fluorophenyl)piperidine-1-carbonyl]-N-(propylcarbamoyl)pyridine-2-sulfonamide]
≥ 50% | CCNC(=O)NS(=O)(=O)c1cc(NCc2ccccc2)c(C(=O)N2CCC(c3ccc(F)cc3)CC2)cn1 [Compound 163, 4-(benzylamino)-N-(ethylcarbamoyl)-5-[4-(4-fluorophenyl)piperidine-1-carbonyl]pyridine-2-sulfonamide]
≥ 50% | CCNC(=O)NS(=O)(=O)c1cc(Nc2cc(C)c(Cl)cc2Cl)c(C(=O)N2CCC(c3ccc(F)cc3)CC2)cn1 [Compound 164, 4-(2,4-dichloro-5-methylphenylamino)-N-(ethylcarbamoyl)-5-[4-(4-fluorophenyl)piperidine-1-carbonyl]pyridine-2-sulfonamide]
≥ 50% | CCCNC(=O)NS(=O)(=O)c1cc(Nc2cc(C)c(Cl)cc2Cl)c(C(=O)N2CCC(c3ccc(F)cc3)CC2)cn1 [Compound 165, 4-(2,4-dichloro-5-methylphenylamino)-5-[4-(4-fluorophenyl)piperidine-1-carbonyl]-N-(propylcarbamoyl)pyridine-2-sulfonamide]
≥ 50% | CCNC(=O)NS(=O)(=O)c1cc(Nc2cc(C)c(Cl)cc2C)c(C(=O)N2CCC(c3ccc(F)cc3)CC2)cn1 [Compound 166, 4-(4-chloro-2,5-dimethylphenylamino)-N-(ethylcarbamoyl)-5-[4-(4-fluorophenyl)piperidine-1-carbonyl]pyridine-2-sulfonamide]
≥ 50% | CCCNC(=O)NS(=O)(=O)c1cc(Nc2cc(C)c(Cl)cc2C)c(C(=O)N2CCC(c3ccc(F)cc3)CC2)cn1 [Compound 167, 4-(4-chloro-2,5-dimethylphenylamino)-5-[4-(4-fluorophenyl)piperidine-1-carbonyl]-N-(propylcarbamoyl)pyridine-2-sulfonamide]
≥ 50% | CCCNC(=O)NS(=O)(=O)c1cc(Nc2ccc(F)cc2C)c(C(=O)N2CCC(c3ccc(F)cc3)CC2)cn1 [Compound 168, 4-(4-fluoro-2-methylphenylamino)-5-[4-(4-fluorophenyl)piperidine-1-carbonyl]-N-(propylcarbamoyl)pyridine-2-sulfonamide]
≥ 50% | CCNC(=O)NS(=O)(=O)c1cc(Nc2ccc(Cl)cc2C)c(C(=O)N2CCC(c3ccc(F)cc3)CC2)cn1 [Compound 169, 4-(4-chloro-2-methylphenylamino)-N-(ethylcarbamoyl)-5-[4-(4-fluorophenyl)piperidine-1-carbonyl]pyridine-2-sulfonamide]
≥ 50% | CCCNC(=O)NS(=O)(=O)c1cc(Nc2ccc(Cl)cc2C)c(C(=O)N2CCC(c3ccc(F)cc3)CC2)cn1 [Compound 170, 4-(4-chloro-2-methylphenylamino)-5-[4-(4-fluorophenyl)piperidine-1-carbonyl]-N-(propylcarbamoyl)pyridine-2-sulfonamide]
≥ 50% | Cc1cc(F)ccc1Nc1cc(S(=O)(=O)NC(=O)NC(C)C)ncc1C(=O)N1CCC(c2ccc(F)cc2)CC1 [Compound 171, 4-(4-fluoro-2-methylphenylamino)-5-[4-(4-fluorophenyl)piperidine-1-carbonyl]-N-(isopropylcarbamoyl)pyridine-2-sulfonamide]
≥ 50% | Cc1cc(F)ccc1Nc1cc(S(=O)(=O)NC(=O)NC2CC2)ncc1C(=O)N1CCC(c2ccc(F)cc2)CC1 [Compound 172, N-(cyclopropylcarbamoyl)-4-(4-fluoro-2-methylphenylamino)-5-[4-(4-fluorophenyl)piperidine-1-carbonyl]pyridine-2-sulfonamide]
